Data reported in patent US20230398130A1, “METHODS AND COMPOSITIONS FOR DIFFERENTIATING STEM CELLS” (Massachusetts Institute of Technology, priority 2020, published 2023).

What was measured:
ISC-enriched organoids [1] = test: Primary screen, 384-well 2.5-D organoid differentiation (ENR+CD, 6 days): carbachol-induced lysozyme secretion (LYZ.S); assay type: cell-based, murine; conditions: for Dose.FC.LYZ.S: FC vs plate median; for Z.LYZ.S: standard z score; for SSMD.LYZ.S: strictly standardized mean difference
Text: (§1) High-throughput screening.

ISC-enriched organoids [2] = test: Primary screen, 384-well 2.5-D organoid differentiation (ENR+CD, 6 days): basal lysozyme secretion (LYZ.NS); assay type: cell-based, murine; conditions: for Dose.FC.LYZ.NS: FC vs plate median; for Z.LYZ.NS: standard z score of FC; for SSMD.LYZ.NS: strictly standardized mean difference
Text: as §1

ISC-enriched organoids [3] = test: Primary screen, 384-well 2.5-D organoid differentiation (ENR+CD, 6 days, Target Selective Inhibitor Library, vs whole-plate median): ATP (CellTiter-Glo 3D, CTG); conditions: for Dose.FC.CTG: FC vs plate median; for SSMD.CTG: strictly standardized mean difference
[4] = Dose 0.08 uM, standard z score of FC
[5] = Dose 0.40 uM, standard z score of FC
[6] = Dose 2.00 uM, standard z score of FC
[7] = Dose 10.00 uM, standard z score of FC
[8] = primary screen, 1st of the 4 dose lines of the treatment (dose not given)
[9] = primary screen, 2nd of the 4 dose lines of the treatment (dose not given)
[10] = primary screen, 3rd of the 4 dose lines of the treatment (dose not given)
[11] = primary screen, 4th of the 4 dose lines of the treatment (dose not given)
[12] = Dose 0.08 uM, primary screen, standard z score
[13] = Dose 0.40 uM, primary screen, standard z score
[14] = Dose 2.00 uM, primary screen, standard z score
[15] = Dose 10.00 uM, primary screen, standard z score

## C[C@]12C=CC(=O)N[C@@H]1CC[C@@H]1[C@@H]2CC[C@]2(C)[C@@H](C(=O)Nc3cc(C(F)(F)F)ccc3C(F)(F)F)CC[C@@H]12 [Dutasteride]
ISC-enriched organoids [1]; Dose 0.08 uM, ENR+CD, 6 days
  Dose.FC.LYZ.S: 0.001 log 2 fold change
ISC-enriched organoids [1]; Dose 0.40 uM, ENR+CD, 6 days
  Dose.FC.LYZ.S: −0.054 log 2 fold change
ISC-enriched organoids [1]; Dose 2.00 uM, ENR+CD, 6 days
  Dose.FC.LYZ.S: −0.074 log 2 fold change
ISC-enriched organoids [1]; Dose 10.00 uM, ENR+CD, 6 days
  Dose.FC.LYZ.S: −0.151 log 2 fold change
ISC-enriched organoids [2]; Dose 0.08 uM, ENR+CD, 6 days
  Dose.FC.LYZ.NS: 0.065 log 2 fold change
ISC-enriched organoids [2]; Dose 0.08 uM
  Z.LYZ.NS: 0.568
ISC-enriched organoids [2]; Dose 0.40 uM, ENR+CD, 6 days
  Dose.FC.LYZ.NS: 0.006 log 2 fold change
ISC-enriched organoids [2]; Dose 0.40 uM
  Z.LYZ.NS: 0.052
ISC-enriched organoids [2]; Dose 2.00 uM, ENR+CD, 6 days
  Dose.FC.LYZ.NS: −0.105 log 2 fold change
ISC-enriched organoids [2]; Dose 2.00 uM
  Z.LYZ.NS: −0.915
ISC-enriched organoids [2]; Dose 10.00 uM, ENR+CD, 6 days
  Dose.FC.LYZ.NS: −0.092 log 2 fold change
ISC-enriched organoids [2]; Dose 10.00 uM
  Z.LYZ.NS: −0.799
ISC-enriched organoids [3]; Dose 0.08 uM, ENR+CD, 6 days
  Dose.FC.CTG: 0.057 log 2 fold change
ISC-enriched organoids [3]; [4]
  Z.CTG: 0.137
ISC-enriched organoids [3]; Dose 0.40 uM, ENR+CD, 6 days
  Dose.FC.CTG: −0.266 log 2 fold change
ISC-enriched organoids [3]; [5]
  Z.CTG: −0.636
ISC-enriched organoids [3]; Dose 2.00 uM, ENR+CD, 6 days
  Dose.FC.CTG: −0.098 log 2 fold change
ISC-enriched organoids [3]; [6]
  Z.CTG: −0.234
ISC-enriched organoids [3]; Dose 10.00 uM, ENR+CD, 6 days
  Dose.FC.CTG: −0.057 log 2 fold change
ISC-enriched organoids [3]; [7]
  Z.CTG: −0.137

## CC(C)c1cc(-c2n[nH]c(=O)n2-c2ccc3c(ccn3C)c2)c(O)cc1O [Ganetespib (STA-9090)]
ISC-enriched organoids [1]; Dose 0.08 uM, ENR+CD, 6 days
  Dose.FC.LYZ.S: −0.260 log 2 fold change
ISC-enriched organoids [1]; Dose 0.40 uM, ENR+CD, 6 days
  Dose.FC.LYZ.S: −0.250 log 2 fold change
ISC-enriched organoids [1]; Dose 2.00 uM, ENR+CD, 6 days
  Dose.FC.LYZ.S: −0.260 log 2 fold change
ISC-enriched organoids [1]; Dose 10.00 uM, ENR+CD, 6 days
  Dose.FC.LYZ.S: −0.267 log 2 fold change
ISC-enriched organoids [2]; Dose 0.08 uM, ENR+CD, 6 days
  Dose.FC.LYZ.NS: −0.141 log 2 fold change
ISC-enriched organoids [2]; Dose 0.08 uM
  Z.LYZ.NS: −1.226
ISC-enriched organoids [2]; Dose 0.40 uM, ENR+CD, 6 days
  Dose.FC.LYZ.NS: −0.155 log 2 fold change
ISC-enriched organoids [2]; Dose 0.40 uM
  Z.LYZ.NS: −1.345
ISC-enriched organoids [2]; Dose 2.00 uM, ENR+CD, 6 days
  Dose.FC.LYZ.NS: −0.150 log 2 fold change
ISC-enriched organoids [2]; Dose 2.00 uM
  Z.LYZ.NS: −1.309
ISC-enriched organoids [2]; Dose 10.00 uM, ENR+CD, 6 days
  Dose.FC.LYZ.NS: −0.136 log 2 fold change
ISC-enriched organoids [2]; Dose 10.00 uM
  Z.LYZ.NS: −1.181
ISC-enriched organoids [3]; Dose 0.08 uM, ENR+CD, 6 days
  Dose.FC.CTG: −1.450 log 2 fold change
ISC-enriched organoids [3]; [4]
  Z.CTG: −3.465
ISC-enriched organoids [3]; Dose 0.40 uM, ENR+CD, 6 days
  Dose.FC.CTG: −2.105 log 2 fold change
ISC-enriched organoids [3]; [5]
  Z.CTG: −5.027
ISC-enriched organoids [3]; Dose 2.00 uM, ENR+CD, 6 days
  Dose.FC.CTG: −1.721 log 2 fold change
ISC-enriched organoids [3]; [6]
  Z.CTG: −4.110
ISC-enriched organoids [3]; Dose 10.00 uM, ENR+CD, 6 days
  Dose.FC.CTG: −1.620 log 2 fold change
ISC-enriched organoids [3]; [7]
  Z.CTG: −3.871

## N#Cc1ccc(C(c2ccc(C#N)cc2)n2cncn2)cc1 [Letrozole]
ISC-enriched organoids [1]; [8]
  Z.LYZ.S: 0.258
  SSMD.LYZ.S: 0.212
ISC-enriched organoids [1]; [9]
  Z.LYZ.S: 0.970
  SSMD.LYZ.S: 0.764
ISC-enriched organoids [1]; [10]
  Z.LYZ.S: 0.038
  SSMD.LYZ.S: 0.041
ISC-enriched organoids [1]; [11]
  Z.LYZ.S: 0.040
  SSMD.LYZ.S: 0.028
ISC-enriched organoids [2]; [8]
  SSMD.LYZ.NS: 0.554
ISC-enriched organoids [2]; [9]
  SSMD.LYZ.NS: 1.104
ISC-enriched organoids [2]; [10]
  SSMD.LYZ.NS: 0.063
ISC-enriched organoids [2]; [11]
  SSMD.LYZ.NS: −0.042
ISC-enriched organoids [3]; [12]
  Z.CTG: −0.031
ISC-enriched organoids [3]; [13]
  Z.CTG: 0.241
ISC-enriched organoids [3]; [14]
  Z.CTG: 0.236
ISC-enriched organoids [3]; [15]
  Z.CTG: 0.408
ISC-enriched organoids [3]; [8]
  SSMD.CTG: −0.043
ISC-enriched organoids [3]; [9]
  SSMD.CTG: 0.336
ISC-enriched organoids [3]; [10]
  SSMD.CTG: 0.288
ISC-enriched organoids [3]; [11]
  SSMD.CTG: 0.606

## C[C@@H]1CN(CC(=O)Nc2ccc3c(c2)Cc2cccc(-c4cc(=O)cc(N5CCOCC5)o4)c2S3)C[C@H](C)O1 [KU-60019]
ISC-enriched organoids [1]; [8]
  Z.LYZ.S: 1.490
  SSMD.LYZ.S: 0.938
ISC-enriched organoids [1]; [9]
  Z.LYZ.S: 0.474
  SSMD.LYZ.S: 0.312
ISC-enriched organoids [1]; [10]
  Z.LYZ.S: −0.317
  SSMD.LYZ.S: −0.261
ISC-enriched organoids [1]; [11]
  Z.LYZ.S: −1.436
  SSMD.LYZ.S: −0.923
ISC-enriched organoids [2]; [8]
  SSMD.LYZ.NS: 0.305
ISC-enriched organoids [2]; [9]
  SSMD.LYZ.NS: −0.014
ISC-enriched organoids [2]; [10]
  SSMD.LYZ.NS: −0.103
ISC-enriched organoids [2]; [11]
  SSMD.LYZ.NS: −0.570
ISC-enriched organoids [3]; [12]
  Z.CTG: 0.273
ISC-enriched organoids [3]; [13]
  Z.CTG: 0.094
ISC-enriched organoids [3]; [14]
  Z.CTG: 0.290
ISC-enriched organoids [3]; [15]
  Z.CTG: −1.246
ISC-enriched organoids [3]; [8]
  SSMD.CTG: 0.371
ISC-enriched organoids [3]; [9]
  SSMD.CTG: 0.118
ISC-enriched organoids [3]; [10]
  SSMD.CTG: 0.175
ISC-enriched organoids [3]; [11]
  SSMD.CTG: −0.916

## Nc1ncnc2c1c(-c1cccc(OCc3ccccc3)c1)cn2C1CC(CN2CCCC2)C1 (stereo not shown) [NVP-ADW742]
ISC-enriched organoids [1]; Dose 0.08 uM, primary screen
  Dose.FC.LYZ.S: 0.245 log 2 fold change
ISC-enriched organoids [1]; Dose 0.40 uM, primary screen
  Dose.FC.LYZ.S: 0.265 log 2 fold change
ISC-enriched organoids [1]; Dose 2.00 uM, primary screen
  Dose.FC.LYZ.S: −0.166 log 2 fold change
ISC-enriched organoids [1]; Dose 10.00 uM, primary screen
  Dose.FC.LYZ.S: −0.210 log 2 fold change
ISC-enriched organoids [2]; Dose 0.08 uM, primary screen
  Dose.FC.LYZ.NS: 0.142 log 2 fold change
ISC-enriched organoids [2]; Dose 0.08 uM
  Z.LYZ.NS: 1.239
ISC-enriched organoids [2]; Dose 0.40 uM, primary screen
  Dose.FC.LYZ.NS: 0.172 log 2 fold change
ISC-enriched organoids [2]; Dose 0.40 uM
  Z.LYZ.NS: 1.499
ISC-enriched organoids [2]; Dose 2.00 uM, primary screen
  Dose.FC.LYZ.NS: −0.095 log 2 fold change
ISC-enriched organoids [2]; Dose 2.00 uM
  Z.LYZ.NS: −0.823
ISC-enriched organoids [2]; Dose 10.00 uM, primary screen
  Dose.FC.LYZ.NS: −0.135 log 2 fold change
ISC-enriched organoids [2]; Dose 10.00 uM
  Z.LYZ.NS: −1.172
ISC-enriched organoids [3]; Dose 0.08 uM, primary screen
  Dose.FC.CTG: 0.679 log 2 fold change
ISC-enriched organoids [3]; [4]
  Z.CTG: 1.622
ISC-enriched organoids [3]; Dose 0.40 uM, primary screen
  Dose.FC.CTG: 0.663 log 2 fold change
ISC-enriched organoids [3]; [5]
  Z.CTG: 1.583
ISC-enriched organoids [3]; Dose 2.00 uM, primary screen
  Dose.FC.CTG: 0.257 log 2 fold change
ISC-enriched organoids [3]; [6]
  Z.CTG: 0.614
ISC-enriched organoids [3]; Dose 10.00 uM, primary screen
  Dose.FC.CTG: −0.465 log 2 fold change
ISC-enriched organoids [3]; [7]
  Z.CTG: −1.112
